Test results reported in patent US6790644B2, “1,3-dicarbonyl-dioxygenase—a new c-c-bond cleaving enzyme” (Biocatalytics, Inc., priority 2001, dated 2004).
Where two headings read alike, the source gives them in different places.

How the values were obtained:
[1] = target: T1, 1,3-dicarbonyl-dioxygenase (Acinetobacter johnsonii, UniProt Q8GNT2); test: Substrate spectrum / apparent kinetic constants of purified 1,3-dicarbonyl-dioxygenase (UV assay and oxygen electrode); conditions: for KO2: polarographic, estimated from rate of oxygen depletion, substrate 0.5-1 mM; for O2/Substrate: oxygen consumed per substrate, oxygen electrode
Description: (§1) The reaction rates were determined by using the microcomputer regression program provided with the spectrophotometer (Winspec) based on the first ten absorbance measurements made at 5-s intervals.
Substrates were dissolved at a concentration of 0.001-1 mM in KH2PO4-buffer, 50 mM, pH 7.5 using a 10 mM stock solution. Duplicate absorption-measurements of 20 different dilutions were performed at 25° C. The molar absorption coefficients were calculated by linear regression.
(§2) Oxygen consumption during the enzyme reaction was measured with an oxygen-electrode-cell (Digital Oxygen System Model 10, Rank Brothers Ltd., Cambridge, England) as described previously (Beechey, R. B. and Ribbons, D. W. (1971). ‘Methods in Microbiology’.V. 6B. Edited by J. R. Norris and D. W. Ribbons. Academic press, London. ‘Oxygen electrode measurements’ (Chapter II) pp. 29-52.). The reaction mixture contained air-saturated KH2PO4-buffer, 50 mM, pH 7.5 at 25° C. (thermostat). The oxygen-electrode was calibrated by the sodium-sulfite-method. Varying concentrations of substrate (0.01-0.3 mM) were added and the resulting decrease of oxygen was determined.
Assuming the Michaelis-Menten-equation, Vmax and Ks values were calculated by non-linear curve-fit by the program microcal-origin. KO2 was estimated by polarographic methods, adding non limiting amounts of substrate (0.5-1 mM) and graphically determining the oxygen concentration at the point of half of the maximum activity. Ks-values were similarly confirmed by polarographic methods, by stepwise addition of substrate to a final concentration of 20-150 μM.

[2] = target: T2, recombinant 1,3-dicarbonyl-dioxygenase (expressed in E.coli) (Acinetobacter johnsonii, UniProt Q8GNT2); test: Relative activity of recombinant protein at non-limiting substrate concentrations; assay type: biochemical
T2 construct: made in house; host or cells: E. coli XL1 Blue, plasmid pMS470 (tac promoter, NdeI/HindIII)
Description: Expression constructs were expressed in E.coli XL1 Blue (Stratagene, La Jolla, Calif.), which was grown to an OD of 1 at 30° C. on rotatory shakers in erlenmeyer flasks, then induced with IPTG (0.3 mM) and incubated for another 5 hours.
as §1, §2

[3] = target: wild-type 1,3-dicarbonyl-dioxygenase (Acinetobacter johnsonii, UniProt Q8GNT2); test: Relative activity of wild-type enzyme at non-limiting substrate concentrations; assay type: biochemical
Description: as §1, §2

[4] = target: T1, 1,3-dicarbonyl-dioxygenase; test: Products of various substrates determined by HPLC (cleavage stoichiometry, partially purified enzyme); assay type: biochemical; conditions: 25° C., one hour; for Substrate % (remaining): remaining substrate calculated; for Acetate % / Methylglyoxal %: oxygen saturated buffer
Excerpt: The products of the enzyme reaction were identified directly from the reaction mixture by in situ ^1H-NMR-spectroscopy (Pokorny, D., L. Brecker, M. Pogorevc, H. Griengl, W. Steiner, T. Kappe, and D. W. Ribbons. 1999. Proton-Nuclear Magnetic Resonance Analyses of the Substrate Specificity of a β-Ketolase from Pseudomonas putida, Acetopyruvate Hydrolase. J. Bacteriol. 181: 5051-5059.). Therefore a 200 MHz narrow bore magnet (Varian Gemini™ 2000, Varian, Inc., Palo Alto, Calif.) and a 5 mm broadband probe head were used. The NMR tube was rotated at 20 rps. For a lock a D2O vortex capillary was added to avoid ^1H/D exchange reactions. The overwhelming water-signal was suppressed with a presaturation method (Guéron, M., P. Plateau and M. Decorps. 1991. Solvent signal suppression in NMR. Prog. NMR Spectrosc. 23: 135-209. Hore, J. P. 1989. Solvent suppression. p. 64. In N. J. Oppenheimer and J. T. James (eds.), Methods Enzymol. 176. Academic Press, Inc., San Diego.). The following parameters were adjusted for a ^1H-frequency of 200 MHz: presaturation-duration of 1.0 s, ^1H-pulse-angle of 90, an acquisition-time of 2.0 s and a relaxation delay of 1.5 s. 64 Scans were accumulated and after a zero filling to 32 k datapoints the free induction decay was Fourier transformed. The water signal (4.70 ppm) was used as a reference. For standard reaction analytics HPLC-measurements were performed (Hewlett-Packard, column: Aminex-HPX-87H, UV- and RI-detector, eluent Sulfuric acid 0.005 M).
The cleavage-stoichiometry of several non-symmetrical substrates was also investigated, in order to be able to determine the regiospecificity of the enzyme. This was done by conversion of the respective substrate with partially purified enzyme. Methylglyoxal and acetate formed were measured by HPLC. Remaining substrate was calculated.

[5] = target: T1, 1,3-dicarbonyl-dioxygenase; assay type: biochemical
[6] = target: T1, 1,3-dicarbonyl-dioxygenase; assay type: biochemical; remark: listed apart in the source
Description: The freshly prepared solutions of the respecitive inhibitors in buffer were added to partially purified enzyme, which then was incubated at room temperature.
The freshly prepared solutions of the respective inhibitors in buffer were added to partially purified enzyme, which then was incubated at room temperature. […] For reactivation, purified enzyme, which had previously been inactivated by incubation with o-phenantroline (1 mM), was incubated with Tris-buffer (20 mM, pH 7.5) containing the respective metal-salts (5 mM).

[7] = apparent, relative to acetylacetone = 1.00, purified wild-type enzyme
[8] = inhibitor 2.5 mM, 2 min incubation, 0.5 mM acetylacetone, pH 7.5
[9] = inhibitor 2.5 mM, 10 min incubation, 0.5 mM acetylacetone, pH 7.5

`O=C1CCCC(=O)C1` [1,3-Cyclohexanedione] was tested, and the Vmaxrel. [1] was 0.00 and the “acceptance as substrate (in words)” value [1] was “not accepted as a substrate”.
With `CC(=O)CC(=O)c1ccccc1` [1-Phenyl-1,3-butandion, 1-Phenyl-1,3-butanedione] the Vmax clone [2] was 0.08, the Vmax wild-type [3] was 0.05 and the Methylglyoxal/Acetate ([4]; substrate 1.6 mM) was 9. For the same molecule, the “Substrate % (remaining)” value ([4]; substrate 1.6 mM) was 24%, the Acetate % ([4]; substrate 1.6 mM) was 8% and the Methylglyoxal % ([4]; substrate 1.6 mM) was 68%. The Vmaxrel. [1, 7] was 0.15, the KO2 ([1]; apparent) was 100 ± 15 µM and the O2/Substrate [1] was 1.0.
`CC(=O)CC(=O)C(=O)O` [2,4-Dioxo-pentanoic acid] was tested, and the Vmaxrel. [1] was 0.00 and the “acceptance as substrate (in words)” value [1] was “not cleaved”.
In the case of `CCOC(=O)C(=O)CC(C)=O` [2,4-Dioxo-pentanoic-acid-ethyl-ester], the Vmax clone [2] is reported as 0.08, the Vmax wild-type [3] is reported as 0.10 and the Vmaxrel. [1, 7] is reported as 0.09. For the same molecule, the KO2 ([1]; apparent) was 91 ± 15 µM and the O2/Substrate [1] was 1.0.
`CCCCCC(=O)CC(C)=O` [2,4-Nonanedione] gave a Vmax clone [2] of 0.25, a Vmax wild-type [3] of 0.30 and a Methylglyoxal/Acetate ([4]; substrate 4 mM) of 1.4. For the same molecule, the “Substrate % (remaining)” value ([4]; substrate 4 mM) was 17%, the Acetate % ([4]; substrate 4 mM) was 35% and the Methylglyoxal % ([4]; substrate 4 mM) was 48%. It also gave a Vmaxrel. [1, 7] of 0.56, a KO2 ([1]; apparent) of 112 ± 15 µM and an O2/Substrate [1] of 1.0.
`CCCCC(=O)CC(C)=O` [2,4-Octandion, 2,4-Octanedione] was tested, and the Vmax clone [2] was 0.60, the Vmax wild-type [3] was 0.50 and the Methylglyoxal/Acetate ([4]; substrate 4 mM) was 0.5. The “Substrate % (remaining)” value ([4]; substrate 4 mM) was 18%, the Acetate % ([4]; substrate 4 mM) was 55% and the Methylglyoxal % ([4]; substrate 4 mM) was 27%. It also gave a Vmaxrel. [1, 7] of 0.58, a KO2 ([1]; apparent) of 85 ± 15 µM and an O2/Substrate [1] of 1.0.
In the case of `CC(=O)C1CCCCC1=O` (stereo not shown) [2-Acetocyclohexanone], the Vmax clone [2] is reported as 0.48, the Vmax wild-type [3] is reported as 0.56 and the “acceptance as substrate (in words)” value [1] is reported as “quite good reaction rated”. For the same molecule, the Vmaxrel. [1, 7] was 0.58, the KO2 ([1]; apparent) was 21 ± 5 µM and the O2/Substrate [1] was 0.9.
In the case of `CC(=O)C1CCCC1=O` (stereo not shown) [2-Acetocyclopentanone], the Vmax clone [2] is reported as 0.43, the Vmax wild-type [3] is reported as 0.31 and the Acetate % ([4]; substrate 4 mM) is reported as 90%. For the same molecule, the “acceptance as substrate (in words)” value [1] was “quite good reaction rated”, the Vmaxrel. [1, 7] was 0.52 and the KO2 ([1]; apparent) was 15 ± 5 µM. The O2/Substrate [1] was 1.0.
`CC(=O)C(C)(C)C(C)=O` [3,3-Dimethylpentanedione] was tested, and the Vmaxrel. [1] was 0.00.
In the case of `COC(C)=CC(C)=O` [4-Methoxy-3-penten-2-one], the Vmaxrel. [1] is reported as 0.00 and the “acceptance as substrate (in words)” value [1] is reported as “not accepted”.
`CC(=O)c1ccccc1O` [(2-Hydroxyphenyl-)-ethan-1-one] was tested, and the Vmaxrel. [1] was 0.00.
For `[Cl][Cu][Cl]` [CuCl2], the “Relative activity [%] 2 min (reactivation)” value [5] was 0% and the “Relative activity [%] 10 min (reactivation)” value [5] was 0%.
`O=C(O)c1cc(SSc2ccc([N+](=O)[O-])c(C(=O)O)c2)ccc1[N+](=O)[O-]` [DTNB, ‘5’-Dithio-bis-(2-dinitrobenzoic acid)] was tested, and the “Relative activity [%] 2 min” value [6, 8] was 88% and the “Relative activity [%] 10 min” value [6, 9] was 85%.
In the case of `CCOC(=O)OC(=O)OCC` [Diethyl-pyrocarbonate], the “Relative activity [%] 2 min” value [6, 8] is reported as 18% and the “Relative activity [%] 10 min” value [6, 9] is reported as 12%.
In the case of `CCN=C=NCCCN(C)C` [EDAC, 1-Ethyl-3-(3-dimethylaminopropyl)-carbodimide], the “Relative activity [%] 2 min” value [6, 8] is reported as 100% and the “Relative activity [%] 10 min” value [6, 9] is reported as 95%.
With `O=C(O)CN(CCN(CC(=O)O)CC(=O)O)CC(=O)O` [EDTA] the “Relative activity [%] 2 min” value [6] was 85% and the “Relative activity [%] 10 min” value [6] was 36%.
`[Cl][Fe]([Cl])[Cl]` [FeCl3] was tested, and the “Relative activity [%] 2 min (reactivation)” value [5] was 0% and the “Relative activity [%] 10 min (reactivation)” value [5] was 0%.
In the case of `O=S(=O)([O-])[O-].[Fe+2]` [FeSO4], the “Relative activity [%] 2 min (reactivation)” value [5] is reported as 14%, the “Relative activity [%] 10 min (reactivation)” value [5] is reported as 33% and the “restoration of enzyme-activity (in words)” value [5] is reported as “partially restores the enzyme-activity”.
`OO` [H2O2] was tested, and the “Relative activity [%] 2 min” value [6] was 0%, the “Relative activity [%] 10 min” value [6] was 0% and the “inactivation of the enzyme (in words)” value [6] was “complete inactivation”.
For `O=C(O)CI` [Iodo-acetic-acid], the “Relative activity [%] 2 min” value ([6]; pH 7.5) was 100% and the “Relative activity [%] 10 min” value ([6]; pH 7.5) was 72%.
For `O=S(=O)([O-])[O-].[Mn+2]` [MnSO4], the “Relative activity [%] 2 min (reactivation)” value [5] was 0% and the “Relative activity [%] 10 min (reactivation)” value [5] was 0%.
With `[N-]=[N+]=[N-].[Na+]` [NaN3] the “Relative activity [%] 2 min” value ([6]; pH 7.5) was 54% and the “Relative activity [%] 10 min” value ([6]; pH 7.5) was 38%.
`[Cl][Ni][Cl]` [NiCl2] was tested, and the “Relative activity [%] 2 min (reactivation)” value [5] was 0% and the “Relative activity [%] 10 min (reactivation)” value [5] was 0%.
With `O=C1CCC(=O)O1` [Succinic anhydride] the “Relative activity [%] 2 min” value [6, 8] was 62% and the “Relative activity [%] 10 min” value [6, 9] was 23%.
`O=S(=O)([O-])[O-].[Zn+2]` [ZnSO4] was tested, and the “Relative activity [%] 2 min (reactivation)” value [5] was 0% and the “Relative activity [%] 10 min (reactivation)” value [5] was 0%.
`Oc1ccccc1O` [catechol] was tested, and the “acceptance as substrate (in words)” value [1] was “does not accept”.
For `Cc1cccc(O)c1O` [methylcatechol], the “acceptance as substrate (in words)” value [1] was “does not accept”.
`c1cnc2c(c1)ccc1cccnc12` [o-Phenantroline] was tested, and the “Relative activity [%] 2 min” value [6] was 38% and the “Relative activity [%] 10 min” value [6] was 10%.
In the case of `O=C(O)c1cc[c]([Hg][OH])cc1` [p-Hydroxymercurybenzoic acid], the “Relative activity [%] 2 min” value ([6]; pH 7.5) is reported as 56% and the “Relative activity [%] 10 min” value ([6]; pH 7.5) is reported as 45%.
CoCl2 was tested, and the “Relative activity [%] 2 min (reactivation)” value [5] was 0% and the “Relative activity [%] 10 min (reactivation)” value [5] was 0%.
